Results reported in EP1484330B1, “Triazole compouds suitable for treating disorders that respond to modulation of the dopamine D3 receptor” (Abbott GmbH & Co. KG, priority 2003, dated 2004).

Columns and labels:
[1] = Determination of the concentration of compounds in plasma and brain following oral dosing; format: in vivo, Male Sprague-Dawley rats; details: rats, 10 mg/kg orally by gavage; samples at 0.5, 3 and 8 hours; value Cmax
Description: Male Sprague-Dawley rats were used in this study (2 to 4 per experiment). The animals were fasted overnight prior to dosing and throughout the duration of the study but were permitted water ad libitum. Each rat received a 10 mg/kg (5 mL/kg) dose orally by gavage. At 0.5, 3 and 8 hours after drug administration, three animals were put under deep anesthesia using isoflurane and euthanized by bleeding (cardiac puncture) under deep isoflurane anesthesia. EDTA blood samples and brain tissue will be collected from each rat. Upon collection, the samples were promptly placed in an ice bath, and within 2 hours after sample collection, the blood was centrifuged at about 4°C. The resulting brain and plasma samples were placed in clean glass tubes and stored in a freezer until analysis. The plasma samples were assayed for parent compound using appropriate liquid chromatography - mass spectrometry procedures. The results are given in table 2 along with results obtained using the two reference compounds A and B, and illustrate the high brain concentrations attainable with the compounds of the invention.

[2] = biological target: T1, human dopamine D3 receptors (Homo sapiens, UniProt P35462); assay: Receptor binding study, displacement of [125I]-iodosulpride from HEK-293 cell membranes; details: for Ki: 0.1 nM [125I]-iodosulpride, HEK-293 membranes, 25°C, 60 minutes; for Selectivity [Ki(D2)/Ki(D3)]: ratio Ki(D2)/Ki(D3)
T1 construct: expressed in transfected cells; membranes used
T1 sequence (P35462 whole entry): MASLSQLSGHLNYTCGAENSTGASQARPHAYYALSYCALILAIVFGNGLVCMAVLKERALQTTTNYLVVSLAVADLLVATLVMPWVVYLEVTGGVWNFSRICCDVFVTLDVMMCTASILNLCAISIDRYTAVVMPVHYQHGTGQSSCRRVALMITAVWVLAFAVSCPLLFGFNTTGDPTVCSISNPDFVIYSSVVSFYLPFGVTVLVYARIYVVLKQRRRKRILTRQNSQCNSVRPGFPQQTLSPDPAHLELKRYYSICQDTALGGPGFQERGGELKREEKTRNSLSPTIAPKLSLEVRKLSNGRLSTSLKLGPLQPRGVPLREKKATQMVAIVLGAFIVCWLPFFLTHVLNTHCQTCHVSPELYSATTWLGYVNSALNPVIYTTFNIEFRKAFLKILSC
Description: (§1) The substance to be tested was either dissolved in methanol/Chremophor® (BASF-AG) or in dimethyl sulfoxide and then diluted with water to the desired concentration.
(§2) Each assay mixture was run in triplicate.
The incubation buffer contained 50 mM tris, 120 mM NaCl, 5 mM KCI, 2 mM CaCl2, 2 mM MgCl2 and 0.1% bovine serum albumin, 10 µM quinolone and 0.1% ascorbic acid (prepared fresh daily). The buffer was adjusted to pH 7.4 with HCl.
(§3) After having been incubated at 25°C for 60 minutes, the assay mixtures were filtered through a Wathman GF/B glass fiber filter under vacuum using a cell collecting device. The filters were transferred to scintillation viols using a filter transfer system. After 4 ml of Ultima Gold® (Packard) have been added, the samples were shaken for one hour and the radioactivity was then counted in a Beta-Counter (Packard, Tricarb 2000 or 2200CA). The cpm values were converted into dpm using a standard quench series and the program belonging to the instrument.
(§4) The inhibition curves were analyzed by means of iterative nonlinear regression analysis using the Statistical Analysis System (SAS) which is similar to the "LIGAND" program described by Munson and Rodbard.

[3] = biological target: T2, human dopamine D2L receptors (long isoform) (Homo sapiens, UniProt P14416); assay: Receptor binding study, displacement of [125I] iodospiperone from HEK-293 cell membranes; details: 0.01 nM [125I] iodospiperone, HEK-293 membranes, 25°C, 60 minutes, read-out: Ki D2
T2 construct: expressed in transfected cells; membranes used
T2 sequence (P14416 whole entry, canonical isoform): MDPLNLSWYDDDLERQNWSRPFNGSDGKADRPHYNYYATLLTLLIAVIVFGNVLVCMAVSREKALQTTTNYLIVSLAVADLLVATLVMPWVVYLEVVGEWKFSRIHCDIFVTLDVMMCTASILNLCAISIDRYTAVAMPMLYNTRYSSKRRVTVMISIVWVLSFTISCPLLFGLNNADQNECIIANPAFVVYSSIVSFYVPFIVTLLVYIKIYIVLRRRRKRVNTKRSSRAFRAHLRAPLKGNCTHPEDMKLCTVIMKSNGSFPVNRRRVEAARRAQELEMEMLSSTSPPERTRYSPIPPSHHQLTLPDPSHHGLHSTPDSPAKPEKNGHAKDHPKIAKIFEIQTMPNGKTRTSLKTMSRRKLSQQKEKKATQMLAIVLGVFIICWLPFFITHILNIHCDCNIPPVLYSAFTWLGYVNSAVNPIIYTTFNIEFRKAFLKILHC
Description: as §1, §2
The incubation buffer contained 50 mM tris, 120 mM NaCl, 5 mM KCl, 2 mM CaCl2, 2 mM MgCl2 and 0.1% bovine serum albumin. The buffer was adjusted to pH 7.4 with HCl.
as §3, §4

Compound	Brain level [1] [ng/g]	Ki [2] [nM]	Selectivity [Ki(D2)/Ki(D3)] [2]	Ki [3] [nM]
Cn1c(N)nnc1SCCCN1CCN(c2cc(C(C)(C)C)nc(C(C)(C)C)n2)CC1 [A*, reference compound]	387			
CCCc1cc(N2CCN(CCCSc3nncn3C)CC2)nc(C(C)(C)C)n1.O=C(O)/C=C/C(=O)O [Example 3, 2-tert-Butyl-4-{4-[3-(4-methyl-4H-[1,2,4]triazol-3-ylsulfanyl)-propyl]-piperazin-1-yl}-6-propyl-pyrimidine fumarate]	1000	3.3	125	412
CCCc1cc(N2CCN(CCCSc3nnc(C)n3C)CC2)nc(C(C)(C)C)n1.Cl [Example 4, 2-tert-Butyl-4-{4-[3-(4-methyl-5-methyl-4H-[1,2,4]triazol-3-ylsulfanyl)-propyl]-piperazin-1-yl}-6-propyl-pyrimidine hydrochloride]	483	2.6	83	216
Cn1c(N)nnc1SCCCN1CCN(c2cc(C(F)(F)F)nc(C(C)(C)C)n2)CC1 [B*, reference compound]	143			
Cc1nnc(SCCCN2CCN(c3cc(C(F)F)nc(C(C)(C)C)n3)CC2)n1C.Cl [Example 8, 2-tert-Butyl-4-{4-[3-(4-methyl-5-methyl-4H-[1,2,4]triazol-3-ylsulfanyl)-propyl]-piperazin-1-yl}-6-difluoromethyl-pyrimidine hydrochloride]		1.8	224	401

Continued, values first:

Brain level [1] [ng/g]	Ki [2] [nM]	Selectivity [Ki(D2)/Ki(D3)] [2]	Ki [3] [nM]	Compound
1835	1.7	75	127	Cl.Cn1cnnc1SCCCN1CCN(c2cc(C(C)(C)C)nc(C(C)(C)C)n2)CC1 [Example 2, 2-tert-Butyl-4-{4-[3-(4-methyl-4H-[1,2,4]triazol-3-ylsulfanyl)-propyl]-piperazin-1-yl}-6-tert-butyl-pyrimidine hydrochloride]
559	1.1	160	176	Cc1nnc(SCCCN2CCN(c3cc(C(C)(C)C)nc(C(C)(C)C)n3)CC2)n1C.Cl [Example 1, 2-tert-Butyl-4-{4-[3-(4-methyl-5-methyl-4H-[1,2,4]triazol-3-ylsulfanyl)-propyl]-piperazin-1-yl}-6-tert-butyl-pyrimidine hydrochloride]
904	3.7	84	311	Cc1nnc(SCCCN2CCN(c3cc(C(F)(F)F)nc(C(C)(C)C)n3)CC2)n1C.Cl [Example 5, 2-tert-Butyl-4-{4-[3-(4-methyl-5-methyl-4H-[1,2,4]triazol-3-ylsulfanyl)-propyl]-piperazin-1-yl}-6-trifluoromethyl-pyrimidine hydrochloride]
2384	3.5	134	469	Cl.Cn1cnnc1SCCCN1CCN(c2cc(C(F)(F)F)nc(C(C)(C)C)n2)CC1 [Example 6, 2-tert-Butyl-4-{4-[3-(4-methyl-4H-[1,2,4]triazol-3-ylsulfanyl)-propyl]-piperazin-1-yl}-6-trifluoromethyl-pyrimidine hydrochloride]
1430	2.9	146	418	Cl.Cn1cnnc1SCCCN1CCN(c2cc(C(F)F)nc(C(C)(C)C)n2)CC1 [Example 7, 2-tert-Butyl-4-{4-[3-(4-methyl-4H-[1,2,4]triazol-3-ylsulfanyl)-propyl]-piperazin-1-yl}-6-difluoromethyl-pyrimidine hydrochloride]
